Measured values published in patent publication US9394299B2, “Rilyazine derivatives and compositions for the treatment of cancer” (Warner Babcock Institute for Green Chemistry, LLC, priority 2013, dated 2016).
“Also recorded” adds a separate entry of the source.

Columns and labels:
[1] = tested on: 60 cell lines (human tumor cell lines of the cancer screening panel); test: NCI 60 cell line screening, single point dosing at 10 μM (SRB); format: cell-based
Procedure: (§1) The screening is a two-stage process, beginning with the evaluation of all compounds against 60 cell lines at a single dose of 10^−5 M.
(§2) The human tumor cell lines of the cancer screening panel are grown in RPMI 1640 medium containing 5% fetal bovine serum and 2 mM L-glutamine. Cells are inoculated into 96 well microtiter plates in 100 μL at plating densities ranging from 5,000 to 40,000 cells/well depending on the doubling time of individual cell lines. After cell inoculation, the microtiter plates are incubated at 37° C., 5% CO2, 95% air and 100% relative humidity for 24 h prior to addition of experimental drugs.
After 24 h, two plates of each cell line are fixed in situ with TCA, to represent a measurement of the cell population for each cell line at the time of drug addition Time Zero (Tz). Experimental drugs are solubilized in dimethyl sulfoxide:glycerol 9:1 at 400-fold the desired final maximum test concentration and stored frozen at −70° C. prior to use. At the time of drug addition, an aliquot of frozen concentrate is thawed and diluted to twice the desired final maximum test concentration with complete medium containing 50 μg/ml gentamicin. Additional four, 10-fold or ½ log serial dilutions are made to provide a total of five drug concentrations plus control. Aliquots of 100 μl of these different drug dilutions are added to the appropriate microtiter wells already containing 100 μl of medium, resulting in the required final drug concentrations.
Positive control is prepared by adding the known anti-tumor agent adriamycin, NSC 123127, prepared and stored the same as the compounds for testing.
Following drug addition, the plates are incubated for an additional 48 h at 37° C., 5% CO2, 95% air, and 100% relative humidity. For adherent cells, the assay is terminated by the addition of cold TCA. Cells are fixed in situ by the gentle addition of 50 μl of cold 50% (w/v) TCA (final concentration, 10% TCA) and incubated for 60 minutes at 4° C. The supernatant is discarded, and the plates are washed five times with tap water and air dried. Sulforhodamine B (SRB) solution (100 μl) at 0.4% (w/v) in 1% acetic acid is added to each well, and plates are incubated for 10 minutes at room temperature. After staining, unbound dye is removed by washing five times with 1% acetic acid and the plates are air dried. Bound stain is subsequently solubilized with 10 mM trizma base, and the absorbance is read on an automated plate reader at a wavelength of 515 nm. For suspension cells, the methodology is the same except that the assay is terminated by fixing settled cells at the bottom of the wells by gently adding 50 μl of 80% TCA (final concentration, 16% TCA).
(§3) For the 1-dose 60 cell testing, the Growth Percent is calculated for each cell line/drug combination from the absorbance measurement for the no-drug control (C), the absorbance at time zero (Tz) and the absorbance measurement after incubation of the cells in the presence of drug (Ti): Growth Percent=[(Ti−Tz)/(C−Tz)]×100 for cell line/drug combinations for which Ti≧Tz. Growth Percent=[(Ti−Tz)/Tz]×100 for cell line/drug combinations for which Ti<Tz.
Calculation of the Growth Percent by these equations allows detection of both growth inhibition (Growth Percent values between 0 and 100) and lethality (Growth Percent values less than 0). For example, a Growth Percent value of 100 means no growth inhibition. A Growth Percent value of 40 would mean 60% growth inhibition. A Growth Percent value of 0 means no net growth over the course of the experiment, or “cytostatic”, no change by growth or cell death. A Growth Percent value of −40 would mean 40% lethality. A Growth Percent value of −100 means all cells are dead.
For 1-dose 60 cell testing, the Mean Growth Percent, Delta and Range across all 60 cell lines are also calculated. The Deviation of each cell line/drug combination from the Mean is also calculated and plotted: Deviation=Mean Growth Percent−Growth Percent […]

[2] = tested on: NCI-H552 (non-small cell lung cancer); test: NCI single point 10 μM, NCI-H552; format: cell-based, human; settings: 10^−5 M
Procedure: as §1
as §2, with “drugs. […]” for “drugs.”
(§4) Following drug addition, the plates are incubated for an additional 48 h at 37° C., 5% CO2, 95% air, and 100% relative humidity. […] Bound stain is subsequently solubilized with 10 mM trizma base, and the absorbance is read on an automated plate reader at a wavelength of 515 nm. […]
as §3, with “Growth Percent=[(Ti−Tz)/Tz]×100 for cell line/drug combinations for which Ti<Tz.” left out

OVCAR-5 (ovarian cancer) = test: NCI five point dosing, OVCAR-5; format: cell-based, human
Procedure: RL-4 was evaluated against the 60 cell panel at five concentration levels, 10^−8 M, 10^−7 M, 10^−6 M, 10^−5 M and 10^−4 M.
as §2, with “drugs. […]” for “drugs.”
as §4
The percentage growth is calculated at each of the five drug concentrations levels using the seven absorbance measurements, namely absorbance at time zero (Tz), absorbance of control after incubation (C), and absorbance of test sample after incubation in the presence of drug at each of the five concentration levels (Ti). The Growth Percent is calculated as it was for the 1 dose assay: Growth Percent=[(Ti−Tz)/(C−Tz)]×100 for cell line/drug combinations for which Ti≧Tz. […]

[3] = single dose 10^−5 M, 60 cell lines
[4] = single point 10 μM, 60 cell lines

S=c1c2ncccc2c(-c2ccccn2)nn1C1CCCCC1 [RL-4, 7-cyclohexyl-5-(pyridin-2-yl)pyrido[2,3-d]pyridazine-8(7H)-thione]
GI50 ([1]; Homo sapiens, single point 10 μM, 22 of 60 cell lines, read-out: GI50 for 22 of 60 cell lines (NCI Results, single point, 10 μM)): ≤ 10 µM
LC50 ([1]; Homo sapiens, single point 10 μM, all 60 cell lines, read-out: LC50 for all 60 cell lines tested (NCI Results, single point, 10 μM)): > 10 µM
Delta of Growth Percent across all cell lines [1, 3]: 52.07
Mean Growth Percent across all cell lines [1, 3]: 59.94%
Range of Growth Percent across all cell lines [1, 3]: 121.36
number of cell lines with Growth Percentages greater than 90% ([1]; single dose 10^−5 M, of 60 cell lines): 6
anti-proliferative effect / growth inhibition (in words) [1, 4]: significant growth inhibition in almost all cell lines; also recorded: has anti-proliferative effects; also recorded: showed cell growth inhibition across the screened cell lines; also recorded: significant growth inhibition in cancer cell lines
toxicity / cell lethality (in words) [1, 4]: relatively non-toxic; also recorded: no associated toxicity; also recorded: No Toxicity is observed
number of cell lines with growth inhibition ≧50% ([1]; single point 10 μM, of 60 cell lines tested): 22
Growth Percent [2]: 91.26%
Growth Percent (OVCAR-5 (ovarian cancer); 10^−4 M dose): 54%
GI50 (OVCAR-5 (ovarian cancer); Homo sapiens, five point dosing): > 100 µM
